SMILES strings stand for the structures.

In general, IC50 refers to the midpoint of a concentration-inhibition curve.

The target of this assay is T1, PARP1 (Homo sapiens, UniProt P09874).
T1 construct: purchased BPS Bioscience
T1 sequence (P09874 whole entry): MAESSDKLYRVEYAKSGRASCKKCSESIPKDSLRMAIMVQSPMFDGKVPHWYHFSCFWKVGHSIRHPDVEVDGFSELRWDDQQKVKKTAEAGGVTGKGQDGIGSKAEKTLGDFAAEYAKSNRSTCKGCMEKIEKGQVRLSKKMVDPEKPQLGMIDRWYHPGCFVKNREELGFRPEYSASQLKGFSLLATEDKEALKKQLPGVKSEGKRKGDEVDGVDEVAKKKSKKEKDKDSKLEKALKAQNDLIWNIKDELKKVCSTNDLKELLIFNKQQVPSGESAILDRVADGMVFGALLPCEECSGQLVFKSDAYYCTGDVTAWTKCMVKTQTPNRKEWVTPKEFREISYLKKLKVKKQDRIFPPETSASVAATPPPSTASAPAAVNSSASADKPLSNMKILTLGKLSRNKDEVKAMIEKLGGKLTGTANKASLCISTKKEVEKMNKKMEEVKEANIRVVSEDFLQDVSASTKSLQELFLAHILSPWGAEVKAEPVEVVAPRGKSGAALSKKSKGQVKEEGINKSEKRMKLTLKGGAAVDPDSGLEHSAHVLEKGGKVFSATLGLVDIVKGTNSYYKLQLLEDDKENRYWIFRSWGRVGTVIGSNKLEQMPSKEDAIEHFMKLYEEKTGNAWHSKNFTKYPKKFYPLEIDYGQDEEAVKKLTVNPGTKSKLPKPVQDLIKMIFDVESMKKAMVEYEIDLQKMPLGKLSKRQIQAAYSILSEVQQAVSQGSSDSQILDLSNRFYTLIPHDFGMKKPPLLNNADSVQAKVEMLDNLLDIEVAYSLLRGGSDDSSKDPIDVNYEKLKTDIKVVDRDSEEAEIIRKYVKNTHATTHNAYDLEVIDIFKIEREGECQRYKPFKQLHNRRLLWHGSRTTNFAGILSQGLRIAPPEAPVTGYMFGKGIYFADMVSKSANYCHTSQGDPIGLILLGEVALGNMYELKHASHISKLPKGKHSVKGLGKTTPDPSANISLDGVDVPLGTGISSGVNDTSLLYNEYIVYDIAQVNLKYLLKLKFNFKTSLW
Description: PARP1 biochemical assay (BPS Bioscience kit, chemiluminescent). The following applies: histone-coated plate, biotinylated NAD+, 60 min at 25° C., luminescence; read-out: PARP 1 inhibition IC50. The method, then:
Example 16: PARP1 Biochemical Assay
The assay was performed using BPS Bioscience kit. The 96-well strip plate was coated with 50 μl of histone mixture and incubated at 4° C. overnight. The next day, the wells were blocked by adding 100 μl of blocking buffer. The plate was washed and 25 μl of appropriate concentration of PARP1 (25-75 ng/well) was added in all of the Test and Positive control wells. In the Negative control wells, the enzyme was replaced with 25 μl of water. 5 μl each of 10× PARP assay buffer and activated DNA was added in all the wells (Test, Positive and Negative control wells). 10× concentration of the test compounds were prepared and 5 μl test compounds were added to the respective wells. The reaction volume was made up to 45 μl by adding water to all of the wells. 5 μl of 10× PARP assay mixture containing biotinilated NAD^+ was added in each well and the plate was incubated at ambient temperature (25° C.) for 60 min. After washing the plate 50 μl of Streptavidin-HRP was added in each well, the plate was incubated at RT for 30 min. The plate was washed and the luminescence was read in PHERAStar plate reader after adding 100 μl of chemiluminescent substrate.
PARP inhibition was calculated using the following formula:
% PARP inhibition=100−[(RLU test compound treated sample−RLU negative control)/(RLU Positive control−RLU negative control)×100]
IC50 values were calculated by plotting % inhibition against the respective concentrations of test compounds using GraphPad Prism 5.
In the case of `N#Cc1ccc(N2CCN([C@H]3C=C(c4cc5ncccc5c(=O)[nH]4)CC3)CC2)cc1` [Compound 1, (R)-4-(4-(3-(5-oxo-5,6-dihydro-1,6-naphthyridin-7-yl)cyclopent-2-en-1-yl)piperazin-1-yl)benzonitrile], the half-maximal inhibitory concentration (IC50) lay in the range of 0.5 to 5 nM. Turning to `O=c1[nH]c(C2=C[C@H](N3CCN(c4ccccc4)CC3)CC2)cc2ncccc12` [Compound 21, (R)-7-(3-(4-phenylpiperazin-1-yl)cyclopent-1-en-1-yl)-1,6-naphthyridin-5(6H)-one], the IC50 was in the range of 0.5 to 5 nM. For `COc1ccc(N2CCN([C@H]3C=C(c4cc5ncccc5c(=O)[nH]4)CC3)CC2)cc1` [Compound 25, (R)-7-(3-(4-(4-methoxyphenyl)piperazin-1-yl)cyclopent-1-en-1-yl)-1,6-naphthyridin-5(6H)-one], the IC50 was 0.5 to 5 nM.

`O=c1[nH]c(C2=C[C@H](N3CCN(c4nccs4)CC3)CC2)cc2sccc12` [Compound 51, (R)-6-(3-(4-(thiazol-2-yl)piperazin-1-yl)cyclopent-1-en-1-yl)thieno[3,2-c]pyridin-4(5H)-one]: the IC50 is 5.1 to 50 nM. To `N#Cc1ccc(N2CCN([C@@H]3CC[C@H](c4cc5ncccc5c(=O)[nH]4)C3)CC2)cc1` (single isomer, unassigned) [Compound 11] belongs 0.5 to 5 nM; to `N#Cc1ccc(N2CCN([C@H]3C=C(c4cc5ncsc5c(=O)[nH]4)CC3)CC2)cc1` [Compound 43, (R)-4-(4-(3-(4-oxo-4,5-dihydrothiazolo[5,4-c]pyridin-6-yl)cyclopent-2-en-1-yl)piperazin-1-yl)benzonitrile], 0.5 to 5 nM; to `N#Cc1cnc(N2CCN([C@H]3C=C(c4cc5ncccc5c(=O)[nH]4)CC3)CC2)s1` [Compound 35, (R)-2-(4-(3-(5-oxo-5,6-dihydro-1,6-naphthyridin-7-yl)cyclopent-2-en-1-yl)piperazin-1-yl)thiazole-5-carbonitrile], 0.5 to 5 nM. As to `CNc1ccc(N2CCN([C@H]3C=C(c4cc5ncccc5c(=O)[nH]4)CC3)CC2)cc1` [Compound 27, (R)-7-(3-(4-(4-(methylamino)phenyl)piperazin-1-yl)cyclopent-1-en-1-yl)-1,6-naphthyridin-5(6H)-one], the concentration for half-maximal inhibition (IC50) was 5.1 to 50 nM.

For the origin of these results see patent publication US20200101068A1, “Heteroaryl Derivatives as PARP Inhibitors” (Lupin Limited, priority 2015, published 2020).
